From patent US9296734B2 (AMGEN INC., priority 2013, dated 2016) come the findings set out here.

What is called IC50 is the concentration that inhibits the measured activity by half.

The subject of assay [1] is Aβ40 in conditioned medium of cells stably expressing Amyloid Precursor Protein (APP). As to the kind of experiment: In vitro BACE cell-based assay (Aβ40 sandwich ELISA). Conditions: Homo sapiens. Put shortly:
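Aβ40 in supernatants was measured by time-resolved fluorescence sandwich ELISA using pAb40 capture and biotinylated 6E10 detection, with antibody incubations at 4 °C. Stable APP cells were exposed to compounds for 24 h in a 10-point series (top dose 100 or 10 µM, 0.1% DMSO). IC50 was fitted from the concentration-response.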
Background: An ELISA detects its analyte on a solid surface through an enzyme-linked reagent.

Assay [2] concerns the target Cathepsin D (Cat D) (Homo sapiens (Human), UniProt P07339). As to the kind of experiment: In vitro enzymatic Cathepsin D (Cat D) FRET assay. Format: biochemical. As to conditions: read-out: CatD IC50. In a few lines: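 CHO-expressed recombinant Cat D cleaves a fluorophore/quencher FRET peptide (20 nM) in 0.05 M citrate pH 3.5, 5 mM CHAPS, 10% DMSO final, over 1 h. Tris addition neutralizes pH to stop the reaction; fluorescence read at excitation 500 nm, emission 580 nm.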

For assay [3], the target named is Beta Secretase enzyme (BACE) (Homo sapiens (Human), UniProt P56817). As to the kind of experiment: In vitro enzymatic BACE FRET assay. It counts as biochemical. Conditions: read-out: BACE 1 FRET assay IC50. In a few lines:
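A quenched fluorophore-peptide spanning the BACE cleavage site served as substrate at 50 nM, with one-hour incubation in pH 4.2 acetate buffer containing 100 uM genapol and 10% DMSO final. Fluorescence was measured after quenching with Tris to neutral pH.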

[4] abbreviates: HEK293, HEK cells, average, read-out: HEK cell assay IC50.
The mark [5] stands for this setting: HEK293, read-out: HEK cell assay IC50.

Structures are written as SMILES. Like-named read-outs stand apart in the source and are kept apart here.

Chain of Cathepsin D (Cat D) (P07339 65-412, species assumed): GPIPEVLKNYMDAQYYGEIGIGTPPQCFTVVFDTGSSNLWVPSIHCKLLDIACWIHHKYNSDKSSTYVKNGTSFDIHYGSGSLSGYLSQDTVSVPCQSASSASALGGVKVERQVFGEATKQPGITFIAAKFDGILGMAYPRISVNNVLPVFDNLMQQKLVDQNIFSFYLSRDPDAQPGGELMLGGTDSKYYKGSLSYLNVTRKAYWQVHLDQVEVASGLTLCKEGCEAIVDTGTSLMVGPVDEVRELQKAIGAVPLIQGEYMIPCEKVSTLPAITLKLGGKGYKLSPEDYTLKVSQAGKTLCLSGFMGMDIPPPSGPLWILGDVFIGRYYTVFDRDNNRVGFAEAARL
Chain of Beta Secretase enzyme (BACE) (P56817 46-501): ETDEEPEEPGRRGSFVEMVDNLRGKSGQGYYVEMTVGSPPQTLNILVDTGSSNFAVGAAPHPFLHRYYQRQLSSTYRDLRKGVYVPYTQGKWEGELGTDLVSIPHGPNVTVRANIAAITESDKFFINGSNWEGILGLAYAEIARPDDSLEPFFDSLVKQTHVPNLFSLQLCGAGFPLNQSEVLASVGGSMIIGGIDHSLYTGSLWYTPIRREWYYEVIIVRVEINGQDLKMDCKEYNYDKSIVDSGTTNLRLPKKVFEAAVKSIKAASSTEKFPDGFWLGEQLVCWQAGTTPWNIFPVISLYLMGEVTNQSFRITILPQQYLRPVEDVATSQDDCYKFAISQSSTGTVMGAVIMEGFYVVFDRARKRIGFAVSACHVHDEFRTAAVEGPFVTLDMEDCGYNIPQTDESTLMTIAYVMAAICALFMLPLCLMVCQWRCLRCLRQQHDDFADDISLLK

For the molecule `Cc1cc(OCC2CC2)cnc1C(=O)Nc1cc(F)c(F)c([C@]2(C)C[C@@H](C(F)(F)F)OC(N)=N2)c1` [Example 191, N-(3-((4S,6S)-2-amino-4-methyl-6-(trifluoromethyl)-5,6-dihydro-4H-1,3-oxazin-4-yl)-4,5-difluorophenyl)-5-(cyclopropylmethoxy)-3-methylpicolinamide], the figures for the IC50 in assay [1] (setting [4]), in assay [2] (average) and in assay [3] (average) were 0.549 µM, 511 µM and 0.097 µM, respectively.
On to `C[C@@]1(c2cc(NC(=O)c3cnc(C(F)F)cn3)cc(F)c2F)C[C@@H](C(F)(F)F)OC(N)=N1` [Example 193, N-(3-((4S,6S)-2-amino-4-methyl-6-(trifluoromethyl)-5,6-dihydro-4H-1,3-oxazin-4-yl)-4,5-difluorophenyl)-5-(difluoromethyl)pyrazine-2-carboxamide], for which the IC50 was 0.018 µM in assay [1] (setting [4]); 0.0213 µM in assay [1] (HEK293, average IC50, HEK cells, read-out: HEK cell assay IC50); more than 400 µM in assay [2] (average IC50); 1270 µM in assay [2] (average); 0.0461 µM in assay [3] (average IC50); 0.075 µM in assay [3] (average).
`COc1cc(Cl)cnc1C(=O)Nc1cc(F)c(F)c([C@]2(C)C[C@@H](C(F)(F)F)OC(N)=N2)c1` [Example 195, N-(3-((4S,6S)-2-amino-4-methyl-6-(trifluoromethyl)-5,6-dihydro-4H-1,3-oxazin-4-yl)-4,5-difluorophenyl)-5-chloro-3-methoxypicolinamide]: the IC50 in assay [1] (setting [4]) was 0.011 µM; in assay [2] (average), more than 400 µM; in assay [3] (average), 0.071 µM.
As for `C[C@@]1(c2cc(NC(=O)c3nn(C(F)F)cc3Cl)cc(F)c2F)C[C@@H](C(F)(F)F)OC(N)=N1` [Example 196, N-(3-((4S,6S)-2-amino-4-methyl-6-(trifluoromethyl)-5,6-dihydro-4H-1,3-oxazin-4-yl)-4,5-difluorophenyl)-4-chloro-1-(difluoromethyl)-1H-pyrazole-3-carboxamide], the IC50 came to 0.007 µM in assay [1] (setting [4]), 628 µM in assay [2] (average) and 0.011 µM in assay [3] (average).
Turning to `COCc1cc(Cl)cnc1C(=O)Nc1cc(F)c(F)c([C@]2(C)C[C@@H](C(F)(F)F)OC(N)=N2)c1` [Example 199, N-(3-((4S,6S)-2-amino-4-methyl-6-(trifluoromethyl)-5,6-dihydro-4H-1,3-oxazin-4-yl)-4,5-difluorophenyl)-5-chloro-3-(methoxymethyl)picolinamide], the IC50 amounted to 0.013 µM in assay [1] (setting [4]), 1710 µM in assay [2] (average) and 0.016 µM in assay [3] (average).
`C[C@@]1(c2cc(NC(=O)c3cnc(OCc4ncco4)cn3)cc(F)c2F)C[C@@H](C(F)(F)F)OC(N)=N1` [Example 204, N-(3-((4S,6S)-2-amino-4-methyl-6-(trifluoromethyl)-5,6-dihydro-4H-1,3-oxazin-4-yl)-4,5-difluorophenyl)-5-(oxazol-2-ylmethoxy)pyrazine-2-carboxamide]: the IC50 in assay [1] (setting [5]) amounted to 0.003 µM; in assay [2] (average) it was 1040 µM; in assay [3] (average) it was 0.006 µM.
Regarding `C[C@@]1(c2cc(NC(=O)c3ncc(C#N)cc3F)cc(F)c2F)C[C@@H](C(F)(F)F)OC(N)=N1` [Example 205, N-(3-((4S,6S)-2-amino-4-methyl-6-(trifluoromethyl)-5,6-dihydro-4H-1,3-oxazin-4-yl)-4,5-difluorophenyl)-5-cyano-3-fluoropicolinamide], the IC50 in assay [1] (setting [4]) was 0.01 µM; in assay [2] (average), more than 400 µM; in assay [3] (average), 0.039 µM.
As to `C[C@@]1(c2cc(NC(=O)c3ccc(C#N)cn3)cc(Cl)c2F)C[C@@H](C(F)(F)F)OC(N)=N1` [Example 206, N-(3-((4S,6S)-2-amino-4-methyl-6-(trifluoromethyl)-5,6-dihydro-4H-1,3-oxazin-4-yl)-5-chloro-4-fluorophenyl)-5-cyanopicolinamide], the IC50 stood at 0.012 µM in assay [1] (setting [4]), 488 µM in assay [2] (average) and 0.023 µM in assay [3] (average).
In the case of `COc1cnc(C(=O)Nc2cc(Cl)c(F)c([C@]3(C)C[C@@H](C(F)(F)F)OC(N)=N3)c2)cn1` [Example 208, N-(3-((4S,6S)-2-amino-4-methyl-6-(trifluoromethyl)-5,6-dihydro-4H-1,3-oxazin-4-yl)-5-chloro-4-fluorophenyl)-5-methoxypyrazine-2-carboxamide], the IC50 amounted to 0.003 µM in assay [1] (setting [5]), 394 µM in assay [2] (average) and 0.012 µM in assay [3] (average).
Consider `COc1ccc(C(=O)Nc2cc(Cl)c(F)c([C@]3(C)C[C@@H](C(F)(F)F)OC(N)=N3)c2)nc1` [Example 209, N-(3-((4S,6S)-2-amino-4-methyl-6-(trifluoromethyl)-5,6-dihydro-4H-1,3-oxazin-4-yl)-5-chloro-4-fluorophenyl)-5-methoxypicolinamide], for which the figures for the IC50 in assay [1] (setting [4]), in assay [2] (average) and in assay [3] (average) were 0.035 µM, 622 µM and 0.015 µM, respectively.
With `C[C@@]1(c2cc(NC(=O)c3cnc(C(F)F)cn3)cc(Cl)c2F)C[C@@H](C(F)(F)F)OC(N)=N1` [Example 211, N-(3-((4S,6S)-2-amino-4-methyl-6-(trifluoromethyl)-5,6-dihydro-4H-1,3-oxazin-4-yl)-5-chloro-4-fluorophenyl)-5-(difluoromethyl)pyrazine-2-carboxamide], the IC50 in assay [1] (setting [5]) stood at 0.047 µM; in assay [2] (average), 604 µM; in assay [3] (average) it was 0.062 µM.
Turning to `C#CCOc1cnc(C(=O)Nc2cc(Cl)c(F)c([C@]3(C)C[C@@H](C(F)(F)F)OC(N)=N3)c2)cn1` [Example 212, N-(3-((4S,6S)-2-amino-4-methyl-6-(trifluoromethyl)-5,6-dihydro-4H-1,3-oxazin-4-yl)-5-chloro-4-fluorophenyl)-5-(prop-2-yn-1-yloxy)pyrazine-2-carboxamide], the IC50 in assay [1] (setting [4]) is 0.001 µM; in assay [2] (average), 554 µM; in assay [3] (average), less than 0.002 µM.
As to `C[C@@]1(c2cc(NC(=O)c3ccc(Br)cn3)cc(Cl)c2F)C[C@@H](C(F)(F)F)OC(N)=N1` [Example 213, N-(3-((4S,6S)-2-amino-4-methyl-6-(trifluoromethyl)-5,6-dihydro-4H-1,3-oxazin-4-yl)-5-chloro-4-fluorophenyl)-5-bromopicolinamide], the IC50 in assay [1] (setting [4]) is 0.0319 µM; in assay [2] (average), 739 µM; in assay [3] (average), 0.01 µM.
As to `C[C@@]1(c2cc(NC(=O)c3cnc(OCC(F)(F)F)cn3)cc(Cl)c2F)C[C@@H](C(F)(F)F)OC(N)=N1` [Example 214, N-(3-((4S,6S)-2-amino-4-methyl-6-(trifluoromethyl)-5,6-dihydro-4H-1,3-oxazin-4-yl)-5-chloro-4-fluorophenyl)-5-(2,2,2-trifluoroethoxy)pyrazine-2-carboxamide], the IC50 in assay [1] (setting [4]) was 0.029 µM; in assay [2] (average), more than 400 µM; in assay [3] (average), 0.008 µM.
Turning to `COc1cnc(C(=O)Nc2cc(C)c(F)c([C@]3(CF)C[C@@H](C(F)(F)F)OC(N)=N3)c2)c(C)n1` [Example 217, N-(3-((4S,6S)-2-amino-4-(fluoromethyl)-6-(trifluoromethyl)-5,6-dihydro-4H-1,3-oxazin-4-yl)-4-fluoro-5-methylphenyl)-5-methoxy-3-methylpyrazine-2-carboxamide], the IC50 in assay [1] (setting [4]) was determined as 0.038 µM; in assay [2] (average) it was 634 µM; in assay [3] (average) it was 0.081 µM.
Taken in the same sequence, the figures for `C#CCOc1cnc(C(=O)Nc2cc(C)c(F)c([C@]3(CF)C[C@@H](C(F)(F)F)OC(N)=N3)c2)cn1` [Example 218, N-(3-((4S,6S)-2-amino-4-(fluoromethyl)-6-(trifluoromethyl)-5,6-dihydro-4H-1,3-oxazin-4-yl)-4-fluoro-5-methylphenyl)-5-(prop-2-yn-1-yloxy)pyrazine-2-carboxamide] were 0.002 µM, 188 µM and 0.001 µM.
For the molecule `Cc1cc(C#N)cnc1C(=O)Nc1cc(C)c(F)c([C@]2(CF)C[C@@H](C(F)(F)F)OC(N)=N2)c1` [Example 219, N-(3-((4S,6S)-2-amino-4-(fluoromethyl)-6-(trifluoromethyl)-5,6-dihydro-4H-1,3-oxazin-4-yl)-4-fluoro-5-methylphenyl)-5-cyano-3-methylpicolinamide], the IC50 is 0.011 µM in assay [1] (setting [4]), more than 400 µM in assay [2] (average) and 0.02 µM in assay [3] (average).
As for `Cc1cc(OCC(F)(F)F)cnc1C(=O)Nc1cc(C)c(F)c([C@]2(CF)C[C@@H](C(F)(F)F)OC(N)=N2)c1` [Example 220, N-(3-((4S,6S)-2-amino-4-(fluoromethyl)-6-(trifluoromethyl)-5,6-dihydro-4H-1,3-oxazin-4-yl)-4-fluoro-5-methylphenyl)-3-methyl-5-(2,2,2-trifluoroethoxy)picolinamide], the IC50 came to 0.429 µM in assay [1] (setting [5]), 263 µM in assay [2] (average) and 0.066 µM in assay [3] (average).
In the case of `COc1cc(Cl)cnc1C(=O)Nc1cc(C)c(F)c([C@]2(CF)C[C@@H](C(F)(F)F)OC(N)=N2)c1` [Example 222, N-(3-((4S,6S)-2-amino-4-(fluoromethyl)-6-(trifluoromethyl)-5,6-dihydro-4H-1,3-oxazin-4-yl)-4-fluoro-5-methylphenyl)-5-chloro-3-methoxypicolinamide], the IC50 in assay [1] (setting [4]) was 0.029 µM; in assay [2] (average) it was more than 400 µM; in assay [3] (average), 0.091 µM.
